According to a compilation of properties of binary mixtures (doi:10.1016/j.molliq.2011.09.019):

Assay: xn = mol fraction of the nth substance listed
Conditions: 101 kPa

CS(C)=O + CC(=O)[O-].CC[NH2+]CC
x1 = 1
Conditions	speed of sound [m/s]	viscosity [mPa·s]
298.15 K	1496	1.99
303.15 K	1472	1.79
308.15 K	1460	1.65

CC(=O)[O-].CC[NH2+]CC + CS(C)=O
Conditions	speed of sound, 298.15 K [m/s]	speed of sound, 303.15 K [m/s]	speed of sound, 308.15 K [m/s]	viscosity, 298.15 K [mPa·s]	viscosity, 303.15 K [mPa·s]	viscosity, 308.15 K [mPa·s]
x1 = 0.0144	1500	1478	1469	2.24	2.04	1.9
x2 = 0	1608	1604	1599	16.36	13.64	11.83
x2 = 0.0253	1606	–	1594	16.01	–	11.6
x2 = 0.0627	1604	1599	1594	15.5	12.96	11.27
x2 = 0.1132	1601	1597	1592	14.83	12.44	10.86
x2 = 0.1535	1599	1595	–	14.29	12.02	–
x2 = 0.2023	–	1594	1589	–	11.54	10.14
x2 = 0.2458	1597	1593	1588	13.11	11.1	9.76
x2 = 0.2814	–	1592	–	–	10.73	–
x2 = 0.3244	1596	1591	1584	12.13	10.28	9.1
x2 = 0.3701	1595	1590	1582	11.56	9.82	8.7
x2 = 0.4864	1593	1582	1574	10.09	8.64	7.69
x2 = 0.5897	–	1572	1562	–	7.51	6.74
x2 = 0.66	–	1564	1554	–	6.72	6.08
x2 = 0.7253	1572	–	1544	6.74	–	5.4
x2 = 0.7851	–	1540	1530	–	5.17	4.77
x2 = 0.8406	1546	–	1516	4.91	–	4.11
x2 = 0.8923	1532	1512	1502	3.98	3.67	3.45
x2 = 0.9248	1522	–	1490	3.39	–	2.95
x2 = 0.956	1513	1491	1480	2.81	2.61	2.48
x2 = 0.971	–	1485	1474	–	2.32	2.18
